This passage reports logP results from the SangsterLogP compilation.

Structures are written as SMILES.

A word on the logP: it is the decadic logarithm of the partition coefficient of the neutral form, usually between octanol and water. A high value points to higher lipophilicity.

Molecule `CCCNc1nc(C)nc(C(Cl)(Cl)Cl)n1` registered a logP of 3.29.

As to `CNc1nc(C)nc(C(Cl)(Cl)Cl)n1`, the logP is 2.39. `O=C1OC(=Nc2ccc(Cl)cc2)C2=C1CCCC2` gave a logP of 3.81. Then `Cc1nc(Nc2ccccc2)nc(C(Cl)(Cl)Cl)n1`, with 3.41; and `O=C1C2=C(CCCC2)C(=O)N1c1ccc(Cl)cc1`, with 3.26; and `ClC(Cl)(Cl)c1nc(C(Cl)(Cl)Cl)nc(C(Cl)(Cl)Cl)n1`, with 3.75. Then `CSc1nc(N)nc(C(Cl)(Cl)Cl)n1`, with 3.12. Then `COc1nc(N)nc(C(Cl)(Cl)Cl)n1`, with 2.39. In turn, `CSc1nc(C(Cl)(Cl)Cl)nc(C(Cl)(Cl)Cl)n1` registered a lipophilicity (logP) of 4.42. As for `Cc1nc(NCc2ccccc2)nc(C(Cl)(Cl)Cl)n1`, the figure is 3.86; as for `Nc1nc(C(Cl)(Cl)Cl)nc(C(Cl)(Cl)Cl)n1`, 2.48. Then `ClC(Cl)(Cl)c1nc(NCc2ccccc2)nc(C(Cl)(Cl)Cl)n1`, with 4.93. Regarding `COc1nc(C(Cl)(Cl)Cl)nc(C(Cl)(Cl)Cl)n1`, the logP is 3.64.

Take `Nc1nc(N)nc(C(Cl)(Cl)Cl)n1`: the logP came out at 1.24. On to `ClC(Cl)(Cl)c1nc(Nc2ccccc2)nc(C(Cl)(Cl)Cl)n1`, for which the logP came out at 4.39. Then `CN(C)c1nc(C(Cl)(Cl)Cl)nc(C(Cl)(Cl)Cl)n1`, with 4.94. In the case of `Cc1nc(N)nc(C(Cl)(Cl)Cl)n1`, the logP was 1.77. As for `CCCNc1nc(C(Cl)(Cl)Cl)nc(C(Cl)(Cl)Cl)n1`, the figure is 4.09. As for `CNc1nc(C(Cl)(Cl)Cl)nc(C(Cl)(Cl)Cl)n1`, the figure is 3.23; as for `Cc1nc(C(Cl)(Cl)Cl)nc(C(Cl)(Cl)Cl)n1`, 4.1; as for `Cc1nc(N(C)C)nc(C(Cl)(Cl)Cl)n1`, 3.78.
